Results as given in publication PMC10311525, “Restricting Promiscuity of Plant Flavonoid 3′-Hydroxylase and 4′-O-Methyltransferase Improves the Biosynthesis of (2S)-Hesperetin in E. coli” (Journal of Agricultural and Food Chemistry, 2023).

Columns and labels:
Assay in all cases: whole-cell conversion, HPLC
Assay type in all cases: cell-based
[1] = target: T1, trThF3′H with CPR (Tricyrtis hirta, UniProt B9A9Y6); settings: 100 mg/L fed, 12 h, 23 °C; product (2S)-eriodictyol; full-length CPR co-expressed
T1 construct: gene F3'H; 24-aa N-terminally truncated F3'H co-expressed with full-length Arabidopsis thaliana CPR from pETDuet-1 (pGH10) in E. coli BL21(DE3); whole-cell conversion; with NADPH--cytochrome P450 reductase 2 (Arabidopsis thaliana)
T1 sequence (B9A9Y6 25-505): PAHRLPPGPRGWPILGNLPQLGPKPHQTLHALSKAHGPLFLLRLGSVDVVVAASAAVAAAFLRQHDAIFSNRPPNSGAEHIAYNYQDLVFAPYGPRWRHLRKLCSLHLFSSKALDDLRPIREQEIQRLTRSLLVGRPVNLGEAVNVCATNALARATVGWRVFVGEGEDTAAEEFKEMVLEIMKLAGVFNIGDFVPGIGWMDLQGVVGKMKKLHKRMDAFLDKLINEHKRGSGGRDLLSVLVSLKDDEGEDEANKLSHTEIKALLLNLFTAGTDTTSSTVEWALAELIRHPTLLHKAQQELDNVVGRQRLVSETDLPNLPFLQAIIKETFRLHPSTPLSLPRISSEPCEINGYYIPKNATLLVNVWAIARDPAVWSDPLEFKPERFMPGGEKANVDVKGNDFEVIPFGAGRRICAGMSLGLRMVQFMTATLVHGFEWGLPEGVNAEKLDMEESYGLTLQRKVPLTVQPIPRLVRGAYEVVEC
T1 sequence (Q9SUM3 whole entry partner, the tested form may be a part): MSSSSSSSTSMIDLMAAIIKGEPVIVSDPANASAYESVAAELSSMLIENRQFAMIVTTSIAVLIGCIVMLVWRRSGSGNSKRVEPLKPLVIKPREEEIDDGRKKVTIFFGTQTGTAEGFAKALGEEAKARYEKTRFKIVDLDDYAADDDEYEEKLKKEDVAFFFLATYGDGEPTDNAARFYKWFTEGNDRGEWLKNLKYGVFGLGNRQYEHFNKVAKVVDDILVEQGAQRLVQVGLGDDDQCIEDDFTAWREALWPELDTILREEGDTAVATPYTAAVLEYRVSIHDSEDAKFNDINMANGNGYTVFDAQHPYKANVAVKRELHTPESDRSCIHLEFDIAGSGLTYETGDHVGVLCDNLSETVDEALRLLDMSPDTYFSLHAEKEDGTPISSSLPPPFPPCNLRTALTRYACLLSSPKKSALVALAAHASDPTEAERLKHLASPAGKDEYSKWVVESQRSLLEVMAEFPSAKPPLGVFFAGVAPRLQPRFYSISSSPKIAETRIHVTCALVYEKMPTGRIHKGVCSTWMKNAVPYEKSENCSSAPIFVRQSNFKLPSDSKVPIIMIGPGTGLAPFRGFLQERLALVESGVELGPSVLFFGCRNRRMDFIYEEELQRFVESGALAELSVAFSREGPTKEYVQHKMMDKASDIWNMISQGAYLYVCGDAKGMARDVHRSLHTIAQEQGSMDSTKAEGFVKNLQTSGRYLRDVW

[2] = target: T2, MpOMT (Mentha x piperita, UniProt Q6VMV8, F133A); settings: 100 mg/L fed, 12 h, 23 °C; product (2S)-hesperetin
T2 construct: gene OMT4
T2 sequence (Q6VMV8 whole entry F133A): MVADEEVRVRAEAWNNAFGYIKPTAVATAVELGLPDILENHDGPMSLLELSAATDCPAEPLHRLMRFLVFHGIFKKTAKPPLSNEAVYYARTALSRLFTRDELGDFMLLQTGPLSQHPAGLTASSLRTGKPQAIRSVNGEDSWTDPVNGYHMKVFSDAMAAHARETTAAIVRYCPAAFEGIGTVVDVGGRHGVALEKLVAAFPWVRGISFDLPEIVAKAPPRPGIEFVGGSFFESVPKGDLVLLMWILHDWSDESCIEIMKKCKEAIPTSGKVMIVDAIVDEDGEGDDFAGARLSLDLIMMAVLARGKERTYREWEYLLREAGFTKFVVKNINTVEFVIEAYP

[3] = target: T3, MpOMT (Mentha x piperita, UniProt Q6VMV8, S142A); settings: 100 mg/L fed, 12 h, 23 °C; product (2S)-hesperetin
T3 construct: gene OMT4
T3 sequence (Q6VMV8 whole entry S142A): as the sequence (Q6VMV8 whole entry F133A) above, with A133F, S142A counted along it

SMILES | whole-cell conversion, HPLC [1] | whole-cell conversion, HPLC [2] | whole-cell conversion, HPLC [3]
O=C1C[C@@H](c2ccc(O)cc2)Oc2cc(O)cc(O)c21 [(2S)-naringenin] | the one harboring trThF3′H and CPR exhibited the highest (2S)-eriodictyol production |  | 
O=C1C[C@@H](c2ccc(O)c(O)c2)Oc2cc(O)cc(O)c21 [(2S)-eriodictyol] |  | three mutants (F115A, F133A, and S142A), which displayed significantly higher conversion rates | three mutants (F115A, F133A, and S142A), which displayed significantly higher conversion rates
